SMILES strings stand for the structures. Like-named read-outs stand apart in the source and are kept apart here.

What all share (format): cell-based
For experiment [1], the system named is HCMV AD169-M1 (V823A, V824L). Description: Plaque reduction assay, 4-oxo-DHQ resistant HCMV AD169-M1. The procedure:
(§1) Antiviral activity of compounds against herpesviruses such as HSV-1, HSV-2, or HCMV can be measured using plaque reduction assays. 0.1 ml of media containing approximately 50 PFU of virus is added to each well of a 24-well cell culture dish containing a confluent monolayer of cells (Vero cells for HSV-1 and HSV-2, HFF cells for HCMV). Compounds are dissolved in 100% DMSO and diluted in 100% DMSO as 200× stocks of the desired final drug concentration. Typically 5-6 two-fold dilutions are prepared for each compound. Dilutions of compounds are then added to media containing 0.8% CMC resulting in a final 1× drug concentration. After the virus-infected cells have incubated for 1 h at 37° C., the virus innoculum is removed and 1 ml of media containing 0.8% CMC and the various concentrations of compound is added to each well of the dish. The dish is incubated at 37° C. for approximately 2-3 days (HSV-1 and HSV-2) or 6-9 days (HCMV) to allow sufficient growth of virus to form plaques in the cell monolayer. Plaques can be observed and counted microscopically or by staining the cells with 0.1% crystal violet in 20% ethanol. […] Antiviral activity of a compound is expressed as the concentration of compound predicted to reduce the number of plaques in a well by 50% (IC50). The IC50 values are calculated by plotting the per cent inhibition vs. concentration of compound using EXCEL software for linear regression.
A plasmid containing the wild-type HCMV polymerase gene is modified to contain the V823A or V823A and V824L mutations using a site-directed mutagenesis Kit (Stratagene Corp.) and following the manufactures's protocol. HFF cells are plated into T25 tissue culture flasks to achieve 80% confluency at the time of the transfection. Wild type HCMV AD 169 DNA and plasmid DNA containing the mutant HCMV polymerase gene are mixed at a ratio of 1:2 (2 ug of viral DNA to 4 ug of plasmid DNA). DNA's are transfected using superfect transfection reagent according to methods recommended by the manufacturer (Quiagen Inc.). Cells are harvested five days posttransfection, freeze-thawed to release virus and half of the sample is used to infect HFF cell monolayers. Cells are overlayed with media containing 20 uM 4-oxo-DHQ compound 2 (see FIG. 1). Serial passage is repeated seven times in the presence of 20 uM compound 2 and virus isolates are then plaque purified three times prior to preparation of viral stock.
In order to isolate an HCMV resistant mutant marker rescue experiments are done. Plasmids containing the mutant polymerase genes are transfected into HFF cells along with wild type HCMV AD169 DNA. The resulting virus is then serially passaged in the presence of 20 uM compound 1 (see FIG. 1). A 4-oxo-DHQ resistant virus is isolated from marker rescue studies done with the HCMV polymerase gene containing mutations that result in the V823A, V824L amino acid changes, but not with the gene containing V823A change alone.

Experiment [2] relates to HSV-2 MS-M1 (V826A). Description: Plaque reduction assay, 4-oxo-DHQ resistant HSV-2 MS-M1. As to conditions: Table 5, mutant selected for 4-oxo-DHQ resistance; read-out: Plaque Reduction Assay - IC50 (μM) HSV-2 MS-M1. Here is the method: as §1
(§2) Vero cells are plated out at a density of 3.5×10^5 cells per well in a six well tissue culture plate. Cells are infected with HSV-1 KOS at a multiplicity of infection (moi) of 0.1 pfu/cell and 1 h post infection the cells are overlayed with 3 ml media containing 20 uM of a 4-oxo-DHQ. Cultures are incubated for 20 h at 37° C., freeze/thawed to release cell-associated virus, and 0.1 ml of culture is used to infect a new monolayer of Vero cells (one passage). Serial passage is repeated seven times in the presence of 20 uM drug. Virus isolates are then plaque purified three times prior to preparation of stocks. 4-oxo-DHQ resistant HSV-1 and HSV-2 may also be selected by the marker transfer method described below using wild-type HSV DNA and the corresponding mutant HSV polymerase gene.
(§3) A panel of viruses consisting of four strains of HSV-1 (KOS, F, DJL, Patton) and three strains of HSV-2 (MS, 35D, 186) are tested in a plaque reduction assay against four different 4-oxo-DHQ compounds (#1, 2, 4, 5 as shown in FIG. 1), and one 4-oxo-DHTP compound (#3 as shown in FIG. 1) and against Acyclovir. The six drugs inhibited replication of the seven virus strains with IC50 values ranging from 2-10 μM (Table 1). In order to select for 4-oxo-DHQ resistant mutants, HSV-1 strains KOS, F, and DJL along with HSV-2 strains 186 and MS are serially passaged in the presence of 20 uM compound 1. Following the seventh passage, 4-oxo-DHQ resistant virus from each strain are plaque purified three times and high-titer stocks are made.

Experiment [3] has as its system HCMV AD169. Description: Plaque reduction assay, HCMV AD169. The procedure:
as §1

Experiment [4] relates to HSV-2 MS. Description: Plaque reduction assay, HSV-2 MS. As to conditions: Table 5, wild type strain; read-out: Plaque Reduction Assay - IC50 (μM) HSV-2 MS. Here is the method: as §1, §3
Experiment [5] has as its system HSV-1 KOS-M1 (V823A). Description: Plaque reduction assay, 4-oxo-DHQ resistant HSV-1 KOS-M1. The conditions noted are these: Table 5, mutant selected for 4-oxo-DHQ resistance; read-out: Plaque Reduction Assay - IC50 (μM) HSV-1 KOS-M1. Here is the method: as §1, §2, §3
In experiment [6] the test system is HSV-1 KOS. Description: Plaque reduction assay, HSV-1 KOS. The conditions noted are these: Table 5, wild type strain; read-out: Plaque Reduction Assay - IC50 (μM) HSV-1 KOS. Here is the method: as §1, §3
The mark [7] stands for this setting: Table 5, mutant selected for 4-oxo-DHQ resistance, read-out: Plaque Reduction Assay - IC50 (μM) HCMV AD169-M1.
[8] abbreviates: Table 5, wild type strain, read-out: Plaque Reduction Assay - IC50 (μM) HCMV AD169.
The mark [9] stands for this setting: Human betaherpesvirus 5, AD169, read-out: HCMV AD169 - M1 IC50 (μM).
[10] abbreviates: Human betaherpesvirus 5, AD169, Table 4, plaque reduction, wild type, read-out: HCMV AD169 IC50.
The mark [11] stands for this setting: Human betaherpesvirus 5, AD169, Table 5, wild type strain, read-out: Plaque Reduction Assay - IC50 (μM) HCMV AD169.

In the case of `O=C(NCc1ccc(Cl)cc1)c1cnc2ccc(CCCO)cc2c1O` [Compound 7], the IC50 in experiment [1] (setting [7]) was 3.4 µM; in experiment [2], 27.9 µM; in experiment [3] (setting [8]) it was 0.3 µM; in experiment [4], 8.8 µM; in experiment [5], more than 50 µM; in experiment [6], 6.5 µM.
Take `Nc1ccn(C[C@@H](CO)OCP(=O)(O)O)c(=O)n1` [Cidofovir, reference compound]: the IC50 in experiment [1] (setting [9]) came out at 0.6 µM; in experiment [3] (setting [10]), 0.3 µM; in experiment [3] (setting [11]) it was 0.4 µM. In addition, the “increase in IC50 / change in sensitivity, HCMV AD169-M1” value in experiment [1] is on record as less than 2 fold.
Regarding `Cn1cc(C(=S)NCc2ccc(Cl)cc2)c(=O)c2cc(C#CCO)ccc21` [Compound 13], the 50% inhibitory concentration (IC50) in experiment [1] (setting [7]) is more than 16 µM; in experiment [2], more than 50 µM; in experiment [3] (setting [8]), 2.7 µM; in experiment [4], 5.3 µM; in experiment [5], less than 25 µM; in experiment [6] it was 5.5 µM.
Turning to `CN(Cc1cc2c(=O)c(C(=O)NCc3ccc(Cl)cc3)cn(C)c2s1)CC(O)c1ccccc1` (racemic) [Compound 8], the IC50 is 1.1 µM in experiment [1] (setting [7]); more than 50 µM in experiment [2]; less than 0.1 µM in experiment [3] (setting [8]); 2.3 µM in experiment [4]; more than 50 µM in experiment [5]; 5.1 µM in experiment [6].
With `Cc1cn([C@@H]2O[C@H](CO)[C@@H](O)[C@@H]2O)c(=O)[nH]c1=O` [AraT, Arabinosylthymine, reference compound], the IC50 came to 3.6 µM in experiment [2], 6.6 µM in experiment [4], 3.6 µM in experiment [5] and 11.6 µM in experiment [6].
Regarding `O=C(NCc1ccc(Cl)cc1)c1cnc2c(F)cccc2c1O` [Compound 6], the IC50 in experiment [1] (setting [7]) was more than 16 µM; in experiment [2] it was more than 50 µM; in experiment [3] (setting [8]) it was 5.1 µM; in experiment [4] it was 28.8 µM; in experiment [5] it was more than 50 µM; in experiment [6], 24.6 µM.
In the case of `Cn1cc(C(=O)NCc2ccc(Br)cc2)c(=O)c2cc(CN3CCOCC3)sc21` [Compound 10], the IC50 is more than 16 µM in experiment [1] (setting [7]); more than 50 µM in experiment [2]; 1.1 µM in experiment [3] (setting [8]); 29.2 µM in experiment [4]; more than 50 µM in experiment [5]; 15.8 µM in experiment [6].
`Nc1nc(O)c2ncn(COC(CO)CO)c2n1` [Ganciclovir, reference compound]: the IC50 in experiment [1] (setting [9]) amounted to 1 µM; in experiment [3] (setting [10]) it was 0.9 µM; in experiment [3] (setting [11]), 0.8 µM. Moreover, the “increase in IC50 / change in sensitivity, HCMV AD169-M1” value in experiment [1] is reported as less than 2 fold.
For `O=C(NCc1ccc(Cl)cc1)c1cn2c(CO)cc3cc(CN4CCOCC4)cc(c1=O)c32` [Compound 9], the IC50 in experiment [1] (setting [7]) is 3.1 µM; in experiment [2], 48.7 µM; in experiment [3] (setting [8]) it was less than 0.1 µM; in experiment [4], 0.9 µM; in experiment [5], more than 50 µM; in experiment [6], 1.9 µM.
As for `Cn1nc(C(=O)NCc2ccc(Cl)cc2)c(=O)c2cc(C#CCO)ccc21` [Compound 14], the half-maximal inhibitory concentration (IC50) in experiment [1] (setting [7]) is 18.4 µM; in experiment [2], more than 50 µM; in experiment [3] (setting [8]) it was 0.9 µM; in experiment [4], 1.6 µM; in experiment [5], more than 50 µM; in experiment [6], 28.4 µM.
With `O=C(O)P(=O)(O)O` [PFA, Foscarnet, reference compound], the IC50 in experiment [1] (Human betaherpesvirus 5, AD169, read-out: Plaque Reduction Assay - IC50 (μM) HCMV AD169-M1) was less than 20 µM; in experiment [3] (setting [11]) it was 38 µM.
`O=c1[nH]c(=O)n([C@H]2C[C@H](O)[C@@H](CO)O2)cc1I` [Iudr, Iododeoxyuridine, reference compound]: the IC50 in experiment [2] is 6.1 µM; in experiment [4], 5 µM; in experiment [5] it was 0.8 µM; in experiment [6], 1.1 µM.
As to `Nc1ccn([C@@H]2O[C@H](CO)[C@@H](O)[C@@H]2O)c(=O)n1` [AraC, Arabinosylcytidine, reference compound], the figures for the IC50 in experiment [2], in experiment [4] and in experiment [6] were 0.1 µM, 0.2 µM and 0.2 µM, respectively.

Source of the values: patent publication US6682892B2, “Method for treating herpes viruses” (priority 2000, dated 2004).
